The source of these data is BindingDB's records for doi:10.7270/Q2TX3CTT (Broad Institute, 2010).

The target in this assay is Glycogen synthase kinase-3 beta (Homo sapiens, UniProt P49841). The experiment in a line: GSK3beta kinase inhibitor potency, dose response, biochemical, luminescence, cell-free homogeneous, retest (AID 434954).
Sequence of Glycogen synthase kinase-3 beta (P49841 whole entry): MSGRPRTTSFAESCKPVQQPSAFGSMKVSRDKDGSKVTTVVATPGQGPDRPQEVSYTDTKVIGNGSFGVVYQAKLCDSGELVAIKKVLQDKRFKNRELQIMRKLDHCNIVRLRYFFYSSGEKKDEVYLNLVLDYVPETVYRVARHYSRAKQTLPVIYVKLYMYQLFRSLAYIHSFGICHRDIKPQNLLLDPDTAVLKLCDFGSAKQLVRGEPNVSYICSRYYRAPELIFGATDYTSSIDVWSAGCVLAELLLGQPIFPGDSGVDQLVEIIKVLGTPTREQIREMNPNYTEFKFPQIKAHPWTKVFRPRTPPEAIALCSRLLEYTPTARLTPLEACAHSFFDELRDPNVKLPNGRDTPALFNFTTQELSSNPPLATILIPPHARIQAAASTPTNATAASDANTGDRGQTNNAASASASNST
As a reminder, the EC50 is the concentration needed to bring the measured effect to its halfway point. The low end stands for higher potency in that assay, the high end for lower potency in that assay. In the case of `O=C1Nc2cc(C(=O)NCCCN3CCOCC3)ccc2S/C1=C/c1cccc(Cl)c1` [(2E)-2-[(3-chlorophenyl)methylidene]-N-(3-morpholin-4-ylpropyl)-3-oxidanylidene-4H-1,4-benzothiazine-6-carboxamide], the EC50 stood at 15.1 µM.

The compound `Cc1csc2c(=O)n(CCO)c(=O)[nH]c12` [MLS000861875] gave an EC50 of over 300 µM.

Regarding `CCCCC(=O)Nc1ccc(C(=O)NNC(=O)CCCOc2ccc(Cl)cc2Cl)cc1` [N-[4-[[[4-(2,4-dichlorophenoxy)-1-oxobutyl]hydrazo]-oxomethyl]phenyl]pentanamide], the EC50 is over 300 µM.

For the compound `COc1ccc(C(=O)OCCc2sc[n+](CC(=O)c3ccccc3)c2C)cc1` [4-methoxybenzoic acid 2-(4-methyl-3-phenacyl-5-thiazol-3-iumyl)ethyl ester;bromide], it took 26 µM to reach a half-maximal effect (EC50).

`NC(=O)C1CCN(C(=O)c2ccc(Oc3cc(Cl)cc(Cl)c3)o2)CC1` [1-[5-[3,5-bis(chloranyl)phenoxy]furan-2-yl]carbonylpiperidine-4-carboxamide]: the EC50 is over 300 µM.

Compound `O=C(Nc1ccc([N+](=O)[O-])cn1)C1CC1` [SMR000227137] displayed an EC50 of 23.1 µM.

`NC(=O)c1c(NC(=O)c2ccncc2)sc2c1CCCC2` had an EC50 of over 300 µM.

`CN(c1ccccc1C(=O)Nc1cccc(C(F)(F)F)c1)S(C)(=O)=O` [MLS000096933] came in with an EC50 of over 300 µM.

The compound `C=CCn1cc(/C=C/c2cc[n+](C)cc2)c2ccccc21` [3-[(E)-2-(1-methylpyridin-1-ium-4-yl)ethenyl]-1-prop-2-enyl-indole;iodide] came in with an EC50 of over 300 µM.

`O=C(CN(Cc1cccs1)C(=O)CCC(=O)Nc1ccccn1)NCc1ccccc1` [N'-[2-oxo-2-[(phenylmethyl)amino]ethyl]-N-(2-pyridinyl)-N'-(thiophen-2-ylmethyl)butanediamide] returned an EC50 of over 300 µM.

Regarding `N#Cc1c(Nc2ccccc2)sc(C(=O)c2ccccc2)c1N` [4-azanyl-2-phenylazanyl-5-(phenylcarbonyl)thiophene-3-carbonitrile], the EC50 stood at 52.9 µM.

With `CCCN(CCC)Cc1c(C(=O)NN=Cc2ccc(C)o2)nnn1-c1nonc1N` [1-(4-azanyl-1,2,5-oxadiazol-3-yl)-5-[(dipropylamino)methyl]-N-[(5-methylfuran-2-yl)methylideneamino]-1,2,3-triazole-4-carboxamide], the EC50 was over 300 µM.

Turning to `CSc1nc(NCCCO)c2c3c(sc2n1)CN(C)CC3`, the response was half-maximal at 29.8 µM (EC50).

For `COC(CSc1nc(N)c2c3c(sc2n1)CN(C)CC3)OC` [SMR000543145], the EC50 was over 300 µM.

As for `COc1cccc2cc(C(=O)NCc3ccc(C)cc3)c(=O)oc12` [8-methoxy-N-(4-methylbenzyl)-2-oxo-2H-chromene-3-carboxamide], the EC50 was over 300 µM.

In turn, `O=C(OCCCN1CCCCC1)c1ccc(O)cc1` [3-piperidin-1-ylpropyl 4-hydroxybenzoate] registered an EC50 of over 300 µM.

As for `CC(=NNC(=O)c1ccc(C(=O)NN=C(C)c2ccco2)o1)c1ccco1` [N'~2~,N'~5~-bis[1-(2-furyl)ethylidene]-2,5-furandicarbohydrazide], the EC50 is over 300 µM.

Consider `COCc1c(C(=O)NN=Cc2ccccn2)nnn1-c1nonc1N`, for which the EC50 is over 300 µM.

Consider `O=C(Nc1ccccn1)Nc1cccs1` [MLS000093554], for which the EC50 was over 300 µM.

As to `Cc1nn(C)c(C(=O)N2CCc3ccccc32)c1Br` [SMR000228334], the EC50 is over 300 µM.

Turning to `CCOC(=O)C1CCN(c2cc(C)nc3ccc(OC)cc23)CC1` [MLS000772886], the EC50 is over 300 µM.

For `O=C(OCCCOC(=O)c1ccc(O)cc1)c1ccc(O)cc1` [4-hydroxybenzoic acid 3-[(4-hydroxyphenyl)-oxomethoxy]propyl ester], the half-maximal effective concentration (EC50) was 1.84 µM.

In turn, `Nc1nc(NCCOCCO)nc(Nc2cccc(F)c2)c1[N+](=O)[O-]` [2-[2-[[4-azanyl-6-[(3-fluorophenyl)amino]-5-nitro-pyrimidin-2-yl]amino]ethoxy]ethanol] showed an EC50 of 10.7 µM.

`N#Cc1c2n(c3c(S)ncnc13)CCCCC2` [4-sulfanylidene-1,6,7,8,9,10-hexahydropyrimido[3,4]pyrrolo[3,5-a]azepine-11-carbonitrile] registered an EC50 of 0.304 µM.

As for `Nc1nc(NCCCN2CCOCC2)nc(NCc2ccccc2)c1[N+](=O)[O-]` [N'-Benzyl-N-(3-morpholin-4-yl-propyl)-5-nitro-pyrimidine-2,4,6-triamine], the EC50 is 8.32 µM.

Consider `CCN1CCN(c2nc(N)c([N+](=O)[O-])c(Nc3cccc(C)c3)n2)CC1` [2-(4-ethylpiperazin-1-yl)-4-N-(3-methylphenyl)-5-nitropyrimidine-4,6-diamine], for which the EC50 is over 300 µM.

For `c1cncc(-c2nc(NCCCn3ccnc3)c3ccccc3n2)c1` [SMR000384722], the EC50 worked out at 30.7 µM.

Take `O=C(CN1C(=O)c2ccccc2C1=O)Nc1ccccc1F` [2-[1,3-bis(oxidanylidene)isoindol-2-yl]-N-(2-fluorophenyl)ethanamide]: the EC50 was over 300 µM.

The compound `COc1cc(C=C2SC(Nc3ccc(O)cc3)=NC2=O)cc(OC)c1OC` [SMR000414809] returned an EC50 of over 300 µM.

`Cc1ccc(-c2nc(Nc3cccc(O)c3)c3ccccc3n2)cc1` [MLS001196546] displayed an EC50 of over 300 µM.

Turning to `Cc1ccc2c(C)c(C(=O)Nc3nnc(C)s3)oc2c1` [3,6-dimethyl-N-(5-methyl-1,3,4-thiadiazol-2-yl)-1-benzofuran-2-carboxamide], the EC50 was over 300 µM.

`CCc1nnc(NC(=O)c2ccc3c(=O)n4c(nc3c2)CCCCC4)s1` [MLS001007070] gave an EC50 of over 300 µM.

Take `CCCc1cc(C(=O)Nc2cc(Br)ccc2O)no1` [MLS000116375]: the 50% effective concentration (EC50) is over 300 µM.

For `Nc1nc(NCCO)nc(NCc2ccccc2)c1[N+](=O)[O-]` [2-[[4-amino-6-(benzylamino)-5-nitropyrimidin-2-yl]amino]ethanol], a half-maximal response (EC50) required 20.2 µM.

On to `COc1ccc(CC(=O)N2C[C@H]3C[C@@H](C2)c2cccc(=O)n2C3)cc1` [SMR000646314], for which the EC50 is over 300 µM.

As for `N#CCCn1cc(CN=O)c(-c2ccc(-c3ccccc3)cc2)n1` [3-[4-(hydroxyiminomethyl)-3-(4-phenylphenyl)pyrazol-1-yl]propanenitrile], the concentration giving a half-maximal response (EC50) was over 300 µM.

Compound `O=C(CN(Cc1ccc(F)cc1)C(=O)CCC(=O)Nc1ccccn1)NCc1ccc(F)cc1` [N-(4-Fluoro-benzyl)-N-[(4-fluoro-benzylcarbamoyl)-methyl]-N'-pyridin-2-yl-succinamide] registered an EC50 of 37.7 µM.

`CCOC(=O)c1cnc2ccc(OCC)cc2c1N1CCN(c2ccccc2)CC1` [SMR000130091] came in with an EC50 of 29 µM.

Compound `O=[N+]([O-])c1c(-c2cn[nH]c2)n[nH]c1-c1cn[nH]c1` [SMR000289595] returned an EC50 of 13.6 µM.

As to `Cc1ccnc(NC(=O)CCC(=O)N(CC(=O)NCCc2ccccc2)Cc2cccs2)c1` [N-(4-methylpyridin-2-yl)-N'-[2-oxidanylidene-2-(2-phenylethylamino)ethyl]-N'-(thiophen-2-ylmethyl)butanediamide], the EC50 amounted to 21.3 µM.

Compound `N#CC1=C2SCN(Cc3ccccc3)CN2C(=O)CC1c1cccs1` (stereo not drawn) had a half-maximal effective concentration (EC50) of 7.88 µM.

With `COc1ccc(S(=O)(=O)CC(=O)c2cc3cccc(C)c3oc2=O)cc1` [SMR000634140], the EC50 is over 300 µM.

`Cc1ccc2c(CN3CCN(Cc4ccccc4)CC3)cc(=O)oc2c1C` [SMR000543581] showed an EC50 of over 300 µM.

Compound `NC(=O)c1ccc(N2CCCCCC2)c([N+](=O)[O-])c1` [MLS000688695] gave an EC50 of over 300 µM.

As for `O=C(CSc1nnc(-c2ccncc2)o1)Oc1ccccc1` [SMR000006341], the EC50 was over 300 µM.

The compound `CCCCC(=O)Nc1ncc(S(=O)(=O)c2ccc([N+](=O)[O-])cc2)s1` [N-[5-(4-nitrophenyl)sulfonyl-2-thiazolyl]pentanamide] came in with an EC50 of over 300 µM.

`CCN1CCN(CC2COc3ccccc3O2)CC1` (stereo not drawn) [MLS001173643] displayed an EC50 of over 300 µM.

`CCOc1ccccc1C=NNC(=O)c1nnn(-c2nonc2N)c1CN1CCCCCC1` came in with an EC50 of 0.105 µM.

Consider `CN1CCc2c(sc3c2C(=O)NC(c2cccs2)N3)C1` (stereo not drawn), for which the EC50 is over 300 µM.

For `CCOC(=O)C1C(C)=Nc2ncnn2C1c1cccs1` (stereo not drawn), the midpoint of the response, the EC50, lay at 57.9 µM.

For `CC(C)=CCc1c(O)ccc2c1OC(c1ccc(O)c(O)c1)CC2=O` (stereo not drawn) [2-(3,4-dihydroxyphenyl)-7-hydroxy-8-(3-methylbut-2-enyl)-2,3-dihydrochromen-4-one], the EC50 worked out at 4.58 µM.

As to `COc1ccc2c(c1)-c1c(ssc1=S)C(C)(C)N2C(=O)CSC1=NCCS1` [2-(4,5-dihydrothiazol-2-ylthio)-1-(8-methoxy-4,4-dimethyl-1-sulfanylidene-5-dithiolo[3,4-c]quinolinyl)ethanone], the EC50 was over 300 µM.

As for `CCOC(=O)c1nnn(-c2nc(OC)nc(N3CCCC3)n2)c1-c1ccccc1`, the EC50 is over 300 µM.

As for `CN(C)c1ccc(-c2nc3ccccc3n2C)cc1` [MLS000089904], the EC50 was over 300 µM.

Compound `COc1ccc2c(c1)C(=O)C(=O)N2` [5-methoxy-2,3-dihydro-1H-indole-2,3-dione] yielded an EC50 of over 300 µM.

`CCCN(CCC)CCCNc1ccc2nnc(-c3ccc(F)cc3)n2n1` [N-[3-(4-fluorophenyl)-[1,2,4]triazolo[4,3-b]pyridazin-6-yl]-N',N'-dipropyl-propane-1,3-diamine] displayed an EC50 of 11.3 µM.

`CCCc1cc(O)c2c(C)cc(=O)oc2c1` [5-hydroxy-4-methyl-7-propyl-1-benzopyran-2-one] had an EC50 of over 300 µM.

Compound `O=Cc1cn(CCC(=O)O)nc1-c1cccc2ccccc12` [3-(4-formyl-3-naphthalen-1-ylpyrazol-1-yl)propanoic acid] gave a 50% effective concentration (EC50) of over 300 µM.

Compound `CC1Cc2cc(S(=O)(=O)N3CCN(c4ccccc4)CC3)ccc2N1C(=O)C1CC1` (stereo not drawn) returned an EC50 of over 300 µM.

In turn, `CC(C)=CCc1c(O)ccc(C2COc3c(CC=C(C)C)c(O)cc(O)c3C2=O)c1O` (stereo not drawn) [3',8-diprenyldalbergioidin] returned an EC50 of over 300 µM.

For `OCCNc1nc2nonc2nc1NCCO`, the EC50 is over 300 µM.

In turn, `O=S(=O)(Nc1cccnc1)c1ccc(C2CCCCC2)cc1` [MLS000075296] yielded an EC50 of over 300 µM.

`O=[N+]([O-])c1cc(Cl)ccc1N1CCCCC1` [MLS000856435] gave an EC50 of over 300 µM.
